Measured values as given in patent publication US11700870B2, “Use of tri- and tetra-saccharides as taste modulators” (Tate & Lyle Solutions USA LLC, priority 2016, dated 2023).

Experiments:
[1] = as compared to sucrose; cited from earlier work
[2] = on a weight basis; cited from earlier work
panelists [3] = experiment: Sweetness rating against sucrose SEV reference solutions; format: in vivo, human; conditions: for sweetness equivalence, as % solution of sucrose: 10% solution of the saccharide
Method: (§1) Additional sensory testing was carried out in accordance with the following procedure. The general framework for the sensory testing was to compare various concentrations of steviol glycoside (rebaudioside A) ranging from 100 ppm to as high as 2000 ppm at intervals spaced to characterize an adequate dose response. Due to known carryover effects, products were served as no more than two products per day, generally served as one of the following pairs: 100 ppm/250 ppm; 500 ppm/1000 ppm; 750 ppm/1500 ppm; 1000 ppm/2000 ppm. The products were not served counterbalanced, but were instead served in ascending concentration to allow for cleaner reads on both data points. The solutions were served in 2 ounce soufflé cups coded with 3-digit codes at room temperature. Store-purchased distilled water and unsalted crackers were available for the panelists to clear their palates before and during testing. Each daily study targeted 30 persons, though at times as fewer panelists were tested due to exclusionary requirements (i.e., those who are lactating, pregnant, on medication, etc., begin the study but then drop out during the study).
The study was designed as a rating study using an anchored scale of references of sucrose solutions in neutral pH water. In this study, panelists received a series of reference samples labeled and identified with their SEV equivalence. The range exceeded the expected sweetness of the test sample and panelists rated the sweetness using a 15-pt maximum that exceeds the expected sweetness of the test sample.
Because one cannot predict the sensitivities of all individuals effectively prior to testing, a broader range of references was used. Specifically, SEV references were as follows (the percentages stated are in weight %):
(§2) Panelists first were asked to familiarize themselves with the intensity of each reference solution and its corresponding SEV. Next, they waited 30 sec and cleansed their palate with water and a cracker. Then panelists were asked to taste the test sample (identified by a random 3-digit code). Then they were instructed to drag a marker on a line scale to match the sweetness of their test samples relative to the references noted above, with the scale ranging from 0 to 15. The value they selected was shown above the line scale so panelists were aware of what values they were indicating. Once this was complete, inquiries related to the liking of the test sample, the similarity of the taste of the test sample to sugar, the intensity of any off flavors, and the identity of any off flavors were asked.

panelists [4] = experiment: Comparative bitterness of 1000 ppm rebaudioside A 97 solutions, three panelists; format: in vivo, human; conditions: for masking the bitterness of rebaudioside A 97: conclusion from the panel, 10% with 1000 ppm rebaudioside A 97
Method: Three aqueous solutions of 1000 ppm rebaudioside A 97 (rebaudioside A having a purity of 97%) were prepared with 10% maltotriose, 2.5% sucrose, or no additional component. The sweetness of a 10% maltotriose solution is approximately equal to a 2.5% sucrose solution. Three panelists were asked to assess the samples for comparative bitterness and were instructed to rinse with water between samples in order to mute any carry-over effects. […] One panelist found the sucrose-containing solution to be the most bitter. […] The panelist that reported the sucrose-containing solution to be less bitter than the maltotriose containing solution, self-identified as an individual not particularly sensitive to the bitterness of rebaudioside A 97. Therefore, the bitterness masking effect of maltotriose may be more plainly observed in those more sensitive to the bitterness of rebaudioside A 97.
Three aqueous solutions of 1000 ppm rebaudioside A 97 were prepared with 10% maltotetraose-enriched syrup (containing 60% maltotetraose on a dry weight basis with other carbohydrates including maltotriose, maltose and glucose), 2.5% sucrose, or no additional component. As a note, the sweetness of a 10% maltotetraose solution is roughly equal to a 2.5% sucrose solution. Three panelists were asked to assess the samples for comparative bitterness and were instructed to rinse with water between samples in order to mute any carry-over effects. […] Therefore, the bitterness masking effect of maltotetraose may be more plainly observed in those sensitive to the bitterness of rebaudioside A 97.

[5] = recent studies, Food Chemistry 132 (2012) 1951-1958; cited from earlier work
S. mutans = conditions: recent studies, Food Chemistry 132 (2012) 1951-1958; cited from earlier work
panelists [6] = experiment: Off flavor intensity rating across the rebaudioside A dose response; format: in vivo, human
Method: as §1
as §2, with “asked. […]” for “asked.”

human sense of taste = experiment: Taste threshold concentration in aqueous solution; format: in vivo; conditions: neutral aqueous solution containing no other ingredients
Description: As used herein, the term “taste threshold concentration associated with the tri-/tetra-saccharide(s)” means the minimum concentration at which a person can still taste the tri-/tetra-saccharide(s) by the human sense of taste, in particular in an aqueous solution containing no ingredient other than water and the tri-/tetra-saccharide(s). This taste threshold concentration may vary somewhat from person to person. For example, melezitose has a taste threshold concentration of about 2.5% by weight in a neutral aqueous solution containing no other ingredients.

[7] = dissolves in 100 g water at 21° C.; cited from earlier work

OC[C@H]1O[C@H](OC[C@H]2O[C@H](OC[C@H]3O[C@H](O[C@]4(CO)O[C@H](CO)[C@@H](O)[C@@H]4O)[C@H](O)[C@@H](O)[C@@H]3O)[C@H](O)[C@@H](O)[C@H]2O)[C@H](O)[C@@H](O)[C@H]1O [Stachyose, stachyose]
degree of digestibility [1]: low | sweetness relative to sucrose [2]: approximately 28%

OC[C@H]1O[C@H](O[C@H]2[C@H](O)[C@@H](O)[C@@H](O[C@H]3[C@H](O)[C@@H](O)[C@@H](O[C@H]4[C@H](O)[C@@H](O)C(O)O[C@@H]4CO)O[C@@H]3CO)O[C@@H]2CO)[C@H](O)[C@@H](O)[C@@H]1O (some centres unmarked) [maltotetraose]
sweetness equivalence, as % solution of sucrose (panelists [3]): ~2.5% | masking the bitterness of rebaudioside A 97 (panelists [4]): effective

OC[C@H]1O[C@@](CO)(O[C@H]2O[C@H](CO)[C@@H](O)[C@H](O)[C@H]2O)[C@@H](O[C@H]2O[C@H](CO)[C@@H](O)[C@H](O)[C@H]2O)[C@@H]1O [melezitose, α-D-glucose (1-3)-β-D-fructose (2-1)-α-D-glucose]
digestibility by in vitro assay [5]: not to be digestible | utilization by S. mutans in dental caries assay (S. mutans): not utilized | reduction of off-tastes of Reb A (panelists [6]; 5% solution of melezitose (subsweet), FIG. 5): clear impact on the reduction of off-tastes | reduction of off-tastes of Reb A (panelists [6]; 10% melezitose solution, as sweet as 2.5% sucrose, FIG. 6): dramatic | sweetness equivalence, as % solution of sugar (sucrose) (panelists [3]; 5% solution of the saccharide): ~1% | sweetness equivalence, as % solution of sucrose (panelists [3]): 2.5% | taste threshold concentration (human sense of taste): about 2.5 % by weight | solubility in water [7]: 26.8 g

OC[C@H]1O[C@@](CO)(O[C@H]2O[C@H](CO)[C@@H](O)[C@H](O)[C@H]2O)[C@@H](O)[C@@H]1O [sucrose, reference compound]
reduction of off flavors of Reb A (panelists [6]; 2.5% solution of sucrose, FIG. 4): reduced somewhat | increase of sweet taste perception of the Reb A dose response curve (panelists [3]; 2.5% solution of sucrose, FIG. 1): about 2.5 sweetness units | comparative bitterness versus neat rebaudioside A solution (panelists [4]; 1000 ppm rebaudioside A 97 with 2.5% sucrose, two of three panelists (Example 3)): equal in bitterness to the neat rebaudioside A solution

maltotriose
sweetness equivalence, as % solution of sucrose (panelists [3]): ~2.5% | comparative bitterness versus rebaudioside A control (panelists [4]; 1000 ppm rebaudioside A 97 in water with 10% test saccharide): less bitter than the rebaudioside A control | panelists who found the sample the least bitter of the three samples (panelists [4]; 1000 ppm rebaudioside A 97 with 10% test saccharide, versus 2.5% sucrose and no additional component, three panelists): Two of the three | panelists who found the sample less bitter than the rebaudioside A control (panelists [4]; 1000 ppm rebaudioside A 97 with 10% test saccharide, three panelists): All three | masking the bitterness of rebaudioside A 97 (panelists [4]): effective
